Measured values taken from ChEMBL document CHEMBL1201862, “PubChem BioAssay data set” (2004).
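Briefly, cells in 96-well plates were exposed to five compound concentrations for 48 h, and endpoints were estimated by linear interpolation. The concentration for 50% growth inhibition is given as GI50.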 Calls of active or inactive are those of the source. No stated cut-off is given here; in the data, active = GI50 up to about 1.1 µM and inactive = higher.

Experiments:
Experiment in all cases: inhibition of tumour cell growth, NCI panel, 48 h
786-0 = system: 786-0
A498 = system: A498
A549 = system: A549
ACHN = system: ACHN
BT-549 = system: BT-549
CAKI-1 = system: CAKI-1
CCRF-CEM = system: CCRF-CEM
COLO 205 = system: COLO 205
DU-145 = system: DU-145
EKVX = system: EKVX
HCC 2998 = system: HCC 2998
HCT-116 = system: HCT-116
HCT-15 = system: HCT-15
HL-60 = system: HL-60
HOP-62 = system: HOP-62
HOP-92 = system: HOP-92
HT-29 = system: HT-29
Hs-578T = system: Hs-578T
IGROV-1 = system: IGROV-1
K562 = system: K562
KM12 = system: KM12
LOX IMVI = system: LOX IMVI
M14 = system: M14
MCF7 = system: MCF7
MDA-MB-231 = system: MDA-MB-231
MDA-MB-435 = system: MDA-MB-435
MDA-N = system: MDA-N
MOLT-4 = system: MOLT-4
NCI-H226 = system: NCI-H226
NCI-H23 = system: NCI-H23
NCI-H460 = system: NCI-H460
NCI/ADR-RES = system: NCI/ADR-RES
OVCAR-3 = system: OVCAR-3
OVCAR-4 = system: OVCAR-4
OVCAR-5 = system: OVCAR-5
OVCAR-8 = system: OVCAR-8
PC-3 = system: PC-3
RPMI-8226 = system: RPMI-8226
RXF 393 = system: RXF 393
SF-268 = system: SF-268
SF-295 = system: SF-295
SF-539 = system: SF-539
SK-MEL-28 = system: SK-MEL-28
SK-MEL-2 = system: SK-MEL-2
SK-MEL-5 = system: SK-MEL-5
SK-OV-3 = system: SK-OV-3
SN12C = system: SN12C
SNB-19 = system: SNB-19
SNB-75 = system: SNB-75
SW-620 = system: SW-620
T47D = system: T47D
TK-10 = system: TK-10
U-251 = system: U-251
UACC-257 = system: UACC-257
UACC-62 = system: UACC-62
UO-31 = system: UO-31
Malme-3M = system: Malme-3M
SR = system: SR
NCI-H522 = system: NCI-H522

Measured: GI50

CC(C)=CCC/C(C)=C/CC/C(C)=C/CSc1ccccc1C(=O)O [SALIRASIB]
14.7 µM: HCT-15
inactive: 786-0 18.2 µM | A498 23.7 µM | A549 20.7 µM | ACHN 37.7 µM | BT-549 16.7 µM | CAKI-1 22.1 µM | CCRF-CEM 28.3 µM | COLO 205 23.6 µM | DU-145 18.2 µM | EKVX 18.4 µM | HCC 2998 18 µM | HCT-116 16.7 µM | HL-60 29.7 µM | HOP-62 16.9 µM | HOP-92 25.9 µM | HT-29 20.5 µM | Hs-578T 17.8 µM | IGROV-1 16.5 µM | K562 36.6 µM | KM12 17.6 µM | LOX IMVI 19.5 µM | M14 20.4 µM | MCF7 24.8 µM | MDA-MB-231 22.6 µM | MDA-MB-435 20 µM | MDA-N 22.3 µM | MOLT-4 23.5 µM | NCI-H226 23.5 µM | NCI-H23 18.2 µM | NCI-H460 17.4 µM | NCI/ADR-RES 22.5 µM | OVCAR-3 16.5 µM | OVCAR-4 36.9 µM | OVCAR-5 19.2 µM | OVCAR-8 17.4 µM | PC-3 19.3 µM | RPMI-8226 32 µM | RXF 393 27.2 µM | SF-268 16.6 µM | SF-295 18.7 µM | SF-539 17.5 µM | SK-MEL-28 21.1 µM | SK-MEL-2 14.4 µM | SK-MEL-5 14.8 µM | SK-OV-3 25.4 µM | SN12C 23.3 µM | SNB-19 21 µM | SNB-75 19.1 µM | SW-620 35.9 µM | T47D > 10 µM | TK-10 28.4 µM | U-251 20.2 µM | UACC-257 34.8 µM | UACC-62 17.7 µM | UO-31 > 10 µM

CCCC(=O)n1[nH]c(=O)n(C(C)(C)C)c1=O
> 100 µM: HCT-15
inactive: 786-0 > 100 µM | A549 > 100 µM | ACHN > 100 µM | BT-549 > 100 µM | CAKI-1 > 100 µM | CCRF-CEM > 100 µM | COLO 205 > 100 µM | DU-145 > 100 µM | EKVX > 100 µM | HCC 2998 > 100 µM | HCT-116 > 100 µM | HL-60 > 100 µM | HOP-62 > 100 µM | HT-29 > 100 µM | Hs-578T > 100 µM | IGROV-1 > 100 µM | K562 > 100 µM | KM12 > 100 µM | LOX IMVI > 100 µM | M14 > 100 µM | MCF7 > 100 µM | MDA-MB-231 > 100 µM | MDA-MB-435 > 100 µM | MDA-N > 100 µM | MOLT-4 > 100 µM | Malme-3M 44.1 µM | NCI-H226 > 100 µM | NCI-H23 > 100 µM | NCI-H460 > 100 µM | NCI/ADR-RES > 100 µM | OVCAR-3 > 100 µM | OVCAR-4 > 100 µM | OVCAR-5 > 100 µM | OVCAR-8 > 100 µM | PC-3 > 100 µM | RPMI-8226 > 100 µM | RXF 393 > 100 µM | SF-268 > 100 µM | SF-295 > 100 µM | SK-MEL-28 > 100 µM | SK-MEL-2 > 100 µM | SK-MEL-5 > 100 µM | SK-OV-3 > 100 µM | SN12C > 100 µM | SNB-19 > 100 µM | SNB-75 39.5 µM | SR > 100 µM | SW-620 > 100 µM | T47D > 100 µM | TK-10 > 100 µM | U-251 > 100 µM | UACC-257 > 100 µM | UACC-62 > 100 µM | UO-31 > 100 µM

O=C(Nc1ccccc1)n1[nH]c(=O)n(-c2ccccc2)c1=O
inactive: 786-0 > 100 µM | A498 > 100 µM | A549 > 100 µM | ACHN > 100 µM | BT-549 > 100 µM | CAKI-1 > 100 µM | CCRF-CEM > 100 µM | COLO 205 > 100 µM | DU-145 > 100 µM | HCC 2998 > 100 µM | HCT-116 > 100 µM | HL-60 > 100 µM | HOP-92 > 100 µM | HT-29 > 100 µM | Hs-578T > 100 µM | K562 > 100 µM | KM12 > 100 µM | LOX IMVI > 100 µM | MCF7 > 100 µM | MDA-MB-231 > 100 µM | MDA-MB-435 > 100 µM | MDA-N > 100 µM | Malme-3M > 100 µM | NCI-H226 > 100 µM | NCI-H23 > 100 µM | NCI-H460 > 100 µM | NCI-H522 > 100 µM | NCI/ADR-RES > 100 µM | OVCAR-4 > 100 µM | OVCAR-8 > 100 µM | PC-3 > 100 µM | RPMI-8226 > 100 µM | SF-268 > 100 µM | SF-295 > 100 µM | SF-539 > 100 µM | SK-MEL-28 > 100 µM | SK-MEL-2 > 100 µM | SK-MEL-5 > 100 µM | SK-OV-3 > 100 µM | SN12C > 100 µM | SNB-19 > 100 µM | SNB-75 > 100 µM | SR > 100 µM | SW-620 > 100 µM | T47D > 100 µM | TK-10 > 100 µM | U-251 > 100 µM | UACC-257 > 100 µM | UACC-62 > 100 µM | UO-31 > 100 µM
> 100 µM: HCT-15

CC(N)C(C)Cc1ccccc1 (stereo unspecified)
> 100 µM: HCT-15
inactive: 786-0 > 100 µM | A498 > 100 µM | A549 > 100 µM | ACHN > 100 µM | BT-549 > 100 µM | CAKI-1 > 100 µM | COLO 205 > 100 µM | DU-145 > 100 µM | EKVX > 100 µM | HCC 2998 > 100 µM | HCT-116 > 100 µM | HL-60 > 100 µM | HOP-62 > 100 µM | HOP-92 64.4 µM | HT-29 > 100 µM | Hs-578T 77.1 µM | IGROV-1 > 100 µM | K562 > 100 µM | KM12 > 100 µM | LOX IMVI > 100 µM | M14 > 100 µM | MCF7 > 100 µM | MDA-MB-231 > 100 µM | MDA-MB-435 > 100 µM | MDA-N > 100 µM | MOLT-4 > 100 µM | Malme-3M > 100 µM | NCI-H226 > 100 µM | NCI-H23 > 100 µM | NCI-H460 > 100 µM | NCI-H522 > 100 µM | NCI/ADR-RES > 100 µM | OVCAR-3 > 100 µM | OVCAR-4 > 100 µM | OVCAR-5 > 100 µM | OVCAR-8 > 100 µM | PC-3 > 100 µM | RPMI-8226 > 100 µM | RXF 393 > 100 µM | SF-268 > 100 µM | SF-295 > 100 µM | SK-MEL-28 > 100 µM | SK-MEL-5 > 100 µM | SK-OV-3 > 100 µM | SN12C > 100 µM | SNB-19 > 100 µM | SNB-75 > 100 µM | SW-620 > 100 µM | T47D > 100 µM | TK-10 > 100 µM | U-251 > 100 µM | UACC-257 > 100 µM | UACC-62 > 100 µM | UO-31 > 100 µM

Cc1cccc(C(C)(C)C)c1NC(=O)/C(Cc1nc2ccc([N+](=O)[O-])cc2nc1O)=N\NC(=O)C[N+](C)(C)C
> 100 µM: HCT-15
inactive: 786-0 > 100 µM | A498 60.7 µM | A549 > 100 µM | ACHN > 100 µM | BT-549 38.5 µM | CAKI-1 > 100 µM | COLO 205 71.8 µM | DU-145 > 100 µM | EKVX > 100 µM | HCC 2998 > 100 µM | HCT-116 > 100 µM | HL-60 > 100 µM | HOP-92 47.2 µM | HT-29 > 100 µM | Hs-578T > 100 µM | IGROV-1 > 100 µM | K562 > 100 µM | KM12 47.1 µM | LOX IMVI 51.3 µM | M14 > 100 µM | MCF7 74.6 µM | MDA-MB-231 > 100 µM | MDA-MB-435 > 100 µM | MDA-N > 100 µM | MOLT-4 38.5 µM | Malme-3M > 100 µM | NCI-H226 > 100 µM | NCI-H23 > 100 µM | NCI-H460 > 100 µM | NCI-H522 17.4 µM | NCI/ADR-RES 60.5 µM | OVCAR-3 52 µM | OVCAR-4 > 100 µM | OVCAR-5 > 100 µM | OVCAR-8 > 100 µM | PC-3 62.5 µM | RPMI-8226 84.5 µM | SF-268 > 100 µM | SF-295 > 100 µM | SF-539 > 100 µM | SK-MEL-28 > 100 µM | SK-MEL-2 > 100 µM | SK-MEL-5 > 100 µM | SK-OV-3 > 100 µM | SN12C > 100 µM | SNB-19 > 100 µM | SNB-75 > 100 µM | SW-620 65.8 µM | T47D 53.5 µM | U-251 > 100 µM | UACC-257 > 100 µM | UACC-62 > 100 µM | UO-31 37.8 µM
